Measurements from patent US8163805B2, “Small molecule antagonists of Bcl-2 family proteins” (The Regents of the University of Michigan, priority 2001, dated 2012).
Several values for one entry are separate records, joined by “and”; a condition that tells them apart may be missing. Equal values may be shown once.

Key:
[1] = test system: androgen-independent prostate PC-3 xenograft; test: PC-3 xenograft, (−)-gossypol and radiation (Example 20); assay type: in vivo, nude mice
Description: In this experiment, 60 male 5 to 6 week old NCI athymic NCr-nu/nu nude mice were inoculated in each flank with an injection of about 5×10^6 PC-3 cells. The best 40 xenograft recipients were used. Tumors averaged about 70 mm^3. (−)-Gossypol compounds were first dissolved in ethanol and diluted with sterile water within 5 min to a final ethanol concentration of 10% prior to each administration. Irradiated test animals were restrained, placed under the X-ray head, and covered with lead shields to ensure that the tumor area was exposed to radiation. All oral administrations of (−)-gossypol and 10% alcohol were given by gavage.
The 40 best xenograft mice were divided into experimental groups as follows: radiation only (Groups 1 and 2), 2 Gy administered 5 times/week for 3 weeks, and daily oral administration of 10% alcohol (as vehicle control); radiation plus gossypol (Groups 3 and 4), 2 Gy administered 5 times a week for 3 weeks, and 10 mg/kg of (−)-gossypol administered orally 5 times/week for 4 weeks (8 mice each Group); gossypol only (Groups 5 and 6), 10 mg/kg (−)-gossypol administered orally every day for 4 weeks (8 mice each Group); vehicle control (Groups 7 and 8), daily oral administration of 10% alcohol (8 mice each Group as vehicle control); large tumor animals (combination of Groups 9-12), tumors allowed to reach 500 mm^3.
Other remaining tumors in this group appear pale yellowish and soft as compared with that in control group with hard solid and reddish appearance, indicating tumor blood supply was inhibited.

[2] = test system: UM-SCC-12; test: Flow cytometric TUNEL apoptosis assay, UM-SCC-12; assay type: cell-based, human; settings: 10 μM, 48-hour
Description: (§1) Briefly, FIGS. 24A-24C show apoptosis after (−)-gossypol as measured by a fluorescent flow cytometric TUNEL assay. Open peaks represent BrdU labeling of untreated cells. Shaded peaks indicate BrdU labeling of cell populations following 48-hour treatment with 10 μM (−)-gossypol; FIG. 24A, UM-SCC-cell lines with wild type p53; FIG. 24B, UM-SCC-cell lines with mutant p53; and FIG. 24C normal fibroblast cells.
(§2) Apoptosis of UM-SCC cell lines following (−)-gossypol treatment was quantitatively detected by enzymatic labeling of DNA strand breaks using terminal deoxynucleotidyltransferase (TdT) and Alexa Fluor-BrdUTP, known as the TdT-UTP nick end-labeling (TUNEL) assay by flow cytometry. Cells were exposed to (−)-gossypol for 48 hours, harvested, fixed and TUNEL stained according to the manufacturer's protocol (Molecular Probes Inc., Eugene, Oreg.). Ten thousand cells were analyzed per sample using excitation of Alexa Fluor at 488 nm. Apoptotic index (AI) was defined as percent of apoptotic cells in the treatment population minus that in the vehicle control population.

[3] = test system: UM-SCC-23; test: 6-day MTT cell growth, UM-SCC-23; assay type: cell-based, human; settings: read-out: IC50, inhibition of cell growth
Description: (§3) UM-SCC and human fibroblast cell lines were continuously exposed to varying concentrations of (−)-gossypol in 6-day MTT cell survival assays. Control wells contained media (DMEM) with vehicle alone. For each data point n=5.
(§4) Ten squamous cell carcinoma cell lines established at the University of Michigan (UM-SCC) and three human fibroblast lines were grown in Dulbecco's modified Eagle's medium (DMEM) supplemented with 10% fetal bovine serum. UM-SCC cell lines originated from the larynx (n=2; UM-SCC-12, -23), oral cavity/oropharynx (n=5; UM-SCC-1, -6, -14A, -74B, -81B), hypopharynx (n=1; UM-SCC-22A) and metastases from laryngeal cancers (n=2; UM-SCC-17B, -25). Human fibroblast cell lines originated from surgical specimens (fibroblast cell lines 2 and 3) and neonatal foreskin samples (fibroblast cell line 1).
(§5) Logarithmically growing cell lines were cultured, washed, counted, and plated at 5,000-15,000 cells per well in duplicate wells of 96-well plates and incubated in DMEM overnight. […] The MTT assay measures cell survival based on mitochondrial conversion of MTT from a soluble tetrazolium salt into an insoluble colored formazan precipitate, which is dissolved in dimethyl sulfoxide and quantitated by spectrophotometry. […] Percent absorbance relative to control was plotted as a linear function of drug concentration.

[4] = test system: UM-SCC-81B; test: 6-day MTT cell growth, UM-SCC-81B; assay type: cell-based, human; settings: read-out: IC50, inhibition of cell growth
Description: as §3, §4, §5

[5] = target: T1, Bcl-XL and pro-apoptotic protein Bim (Homo sapiens, UniProt Q07817); test: Immunoprecipitation of Bcl-XL/Bim heterodimerization in HT-29 cells; assay type: cell-based; settings: HT-29, starting at 8 hrs
T1 construct: endogenous in cells; host or cells: HT-29 colon cancer cells
T1 sequence (Q07817 whole entry): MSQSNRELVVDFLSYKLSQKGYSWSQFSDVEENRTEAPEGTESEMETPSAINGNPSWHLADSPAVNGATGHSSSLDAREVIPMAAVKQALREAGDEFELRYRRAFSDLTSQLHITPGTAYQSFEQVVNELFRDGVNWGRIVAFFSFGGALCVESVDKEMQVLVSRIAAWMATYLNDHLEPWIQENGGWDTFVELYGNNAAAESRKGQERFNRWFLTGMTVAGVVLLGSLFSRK
Description: In one embodiment HT-29 colon cancer cells, which express only the Bcl-xL protein, were treated with (−)-gossypol at various doses for 4 hrs, 8 hrs, and 12 hrs. To avoid the detergent effects on the dimerization of Bcl-xL proteins in immunoprecipitation experiments, following the treatment of cells with gossypol, immunoprecipitation of cell lysates was carried out in the Chaps buffer with the anti-Bcl-XL antibody. The Bcl-XL bound proteins were then immunoblotted with anti-Bim antibody. […] There is no change in the total Bcl-XL or Bim protein in the same lysates following the (−)-gossypol treatment.

[6] = test system: UM-SCC-12; test: 6-day MTT cell growth, UM-SCC-12; assay type: cell-based, human; settings: read-out: IC50, inhibition of cell growth
Description: as §3, §4, §5

[7] = test system: fibroblasts; test: 6-day MTT cell survival, mean over fibroblasts; assay type: cell-based, human
[8] = test system: Fib-1 (fibroblast cell line 1); test: 6-day MTT cell growth, Fib-1; assay type: cell-based, human; settings: read-out: IC50, inhibition of cell growth
Description: as §3, §4, §5

[9] = test system: UM-SCC-25; test: 6-day MTT cell growth, UM-SCC-25; assay type: cell-based, human; settings: read-out: IC50, inhibition of cell growth
Description: as §3, §4, §5

[10] = test system: MCF-7 breast cancer cell line; test: Growth inhibition with TAXOL in fixed ratio, MCF-7; assay type: cell-based, human; settings: combinations in a fixed ratio to TAXOL
[11] = test system: A549 non-small cell lung carcinoma xenograft; test: A549 non-small cell lung carcinoma xenograft, (−)-gossypol with paclitaxel; settings: Table 13; combinations of G- with paclitaxel at 7.5 mg/kg
[12] = target: T2, Bcl-2 (Homo sapiens, UniProt P10415); test: FP binding assay, Flu-Bad-25 peptide and GST-fusion Bcl-2 (FIG. 4, 45); settings: FIG. 4
T2 construct: purchased Santa Cruz Biotechnology
T2 sequence (P10415 1-205 limits assumed): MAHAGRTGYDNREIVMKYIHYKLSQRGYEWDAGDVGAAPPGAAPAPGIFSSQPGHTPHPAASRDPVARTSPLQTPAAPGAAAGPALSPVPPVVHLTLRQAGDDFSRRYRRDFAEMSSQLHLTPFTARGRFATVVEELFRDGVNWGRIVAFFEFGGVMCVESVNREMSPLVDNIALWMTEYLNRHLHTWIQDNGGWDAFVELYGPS

[13] = test system: UM-SCC-14A; test: Flow cytometric TUNEL apoptosis assay, UM-SCC-14A; assay type: cell-based, human; settings: 10 μM, 48-hour
Description: as §1, §2

[14] = test system: UM-SCC-1; test: 6-day MTT cell growth, UM-SCC-1; assay type: cell-based, human; settings: read-out: IC50, inhibition of cell growth
Description: as §3, §4, §5

SMILES: Cc1cc2c(C(C)C)c(O)c(O)c(C=O)c2c(O)c1-c1c(C)cc2c(C(C)C)c(O)c(O)c(C=O)c2c1O [(−)-gossypol]
- tumors with complete regression ([1]; (−)-gossypol 10 mg/kg p.o. q.d.×5 4 weeks + X-ray 2 Gy q.d.×5 3 weeks): At least 10 out of 16
- tumor growth inhibition compared with vehicle control, day 37 ([1]; Table 15, (−)-gossypol 10 mg/kg p.o. in combination with radiation 2 Gy per day, total 30 Gy): achieved 91.5% tumor growth
- complete tumor regression, number of tumors ([1]; Table 15, combination of (−)-gossypol with radiation, out of 16 tumors): regression in 10 out of 16 tumors in
- apoptotic index (AI) [2]: 27.2%
- IC50 [3]: 1.5 µM
- IC50 [4]: 4 µM
- binding of Bcl-XL and Bim in intact cells [5]: dose-dependent decrease in the binding of Bcl-XL and pro-apoptotic protein Bim
- IC50 [6]: 4 µM
- IC50 [7]: 20.3 ± 9.2 µM
- IC50 [8]: 20 µM
- IC50 [9]: 8 µM
- IC50 [10]: 8.71 µM
- tumor growth inhibition compared with vehicle control [11]: 76% tumor growth inhibition as
- inhibition of binding between Bid BH3 peptide and Bcl-2 [12]: directly inhibit binding between Bid BH3 peptide and Bcl-2
- apoptotic index (AI) [13]: 14.1%
- IC50 [14]: 2 µM and 1.5 µM
